Measurements published in PubChem BioAssay AID1963870 (Molecular Pharmacology Branch, DTP, NCI, 2024).

System: 292921-168-R-J2-PDC KRAS tumor spheroid viability
Assay: Anticancer human tumor 292921-168-R-J2-PDC patient-derived pancreatic carcinoma cell line growth inhibition [KRAS2]
Conditions: spheroids with HUVEC and MSC; for IC50: curve of first compound; for viability, T/C: stronger effect = lower value
In short: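 Combination screen of spheroid viability in tumor-cell co-cultures with endothelial (HUVEC) and mesenchymal stem cell stroma. Each agent was tested in half-log dilutions, topping at clinical Cmax or at 10 microM without a known Cmax.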

[1] = second compound 0.1 µM, first compound 0.01 µM
[2] = second compound 0.1 µM, first compound 0.0316 µM
[3] = second compound 0.1 µM, first compound 0.1 µM
[4] = second compound 0.1 µM, first compound 0.316 µM
[5] = second compound 0.1 µM, first compound 1 µM
[6] = second compound 0.1 µM, first compound 3.16 µM
[7] = second compound 0.316 µM, first compound 0.01 µM
[8] = second compound 0.316 µM, first compound 0.0316 µM
[9] = second compound 0.316 µM, first compound 0.1 µM
[10] = second compound 0.316 µM, first compound 0.316 µM
[11] = second compound 0.316 µM, first compound 1 µM
[12] = second compound 0.316 µM, first compound 3.16 µM
[13] = second compound 1 µM, first compound 0.01 µM
[14] = second compound 1 µM, first compound 0.0316 µM
[15] = second compound 1 µM, first compound 0.1 µM
[16] = second compound 1 µM, first compound 0.316 µM
[17] = second compound 1 µM, first compound 1 µM
[18] = second compound 1 µM, first compound 3.16 µM
[19] = second compound 3.16 µM, first compound 0.01 µM
[20] = second compound 3.16 µM, first compound 0.0316 µM
[21] = second compound 3.16 µM, first compound 0.1 µM
[22] = second compound 3.16 µM, first compound 0.316 µM
[23] = second compound 3.16 µM, first compound 1 µM
[24] = second compound 3.16 µM, first compound 3.16 µM
[25] = second compound 10 µM, first compound 0.01 µM
[26] = second compound 10 µM, first compound 0.0316 µM
[27] = second compound 10 µM, first compound 0.1 µM
[28] = second compound 10 µM, first compound 0.316 µM
[29] = second compound 10 µM, first compound 1 µM
[30] = second compound 10 µM, first compound 3.16 µM
[31] = second compound 0.1 µM, first compound 10 µM
[32] = second compound 0.316 µM, first compound 10 µM
[33] = second compound 1 µM, first compound 10 µM
[34] = second compound 3.16 µM, first compound 10 µM
[35] = second compound 10 µM, first compound 10 µM
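Also: drug exposure lasted seven days after spheroids formed for three days.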
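For viability, T/C in this document: percent of DMSO vehicle control viability which is 100%.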

SMILES | IC50 (second compound 0.1 µM) [µM] | IC50 (second compound 0.316 µM) [µM] | IC50 (second compound 1 µM) [µM] | IC50 (second compound 3.16 µM) [µM] | IC50 (second compound 10 µM) [µM] | viability, T/C [2] [%] | viability, T/C [3] [%] | viability, T/C [4] [%] | viability, T/C [5] [%] | viability, T/C [6] [%] | viability, T/C [8] [%] | viability, T/C [9] [%] | viability, T/C [10] [%] | viability, T/C [11] [%] | viability, T/C [14] [%] | viability, T/C [15] [%] | viability, T/C [20] [%] | viability, T/C [21] [%] | viability, T/C [26] [%] | viability, T/C [27] [%] | further results
CC1COCCN1c1cc(-c2ccnn2C)c2ccnc(-c3ccn[nH]3)c2n1 (stereo not given) + CC1OCC2(CCN(c3cnc(Sc4ccnc(N)c4Cl)c(N)n3)CC2)C1N | < 0.01 | < 0.01 | < 0.01 | < 0.01 | < 0.01 | 23.8 | 15.9 | 15 | 15 | 16.2 | 20.6 | 14.6 | 13 | 13.3 | 21.9 | 13.4 | 17.8 | 13.4 | 18.2 | 13.1 | viability, T/C [1]: 44.6%; viability, T/C [7]: 38.9%; viability, T/C [12]: 14.5%; viability, T/C [13]: 33.5%; viability, T/C [16]: 12.3%; viability, T/C [17]: 12.3%; viability, T/C [18]: 12.3%; viability, T/C [19]: 28.2%; viability, T/C [22]: 11%; viability, T/C [23]: 10.2%; viability, T/C [24]: 10.9%; viability, T/C [25]: 25.3%; viability, T/C [28]: 10.2%; viability, T/C [29]: 10.7%; viability, T/C [30]: 9.89%
Cn1nccc1Nc1nccc(-c2cc3c(s2)C(C)(C)N(CCN2CCOCC2)C3=O)n1 + CC1OCC2(CCN(c3cnc(Sc4ccnc(N)c4Cl)c(N)n3)CC2)C1N | 0.0393 | < 0.0316 | < 0.0316 | < 0.0316 | < 0.0316 | 54.5 | 30.8 | 19.1 | 11.7 | 10.5 | 37.1 | 25.7 | 12.6 | 10.9 | 33.9 | 21 | 26.3 | 19.7 | 24.1 | 17.6 | viability, T/C [31]: 11.7%; viability, T/C [12]: 8.88%; viability, T/C [32]: 9.52%; viability, T/C [16]: 13.1%; viability, T/C [17]: 9.76%; viability, T/C [18]: 8.56%; viability, T/C [33]: 9.6%; viability, T/C [22]: 12.6%; viability, T/C [23]: 8.37%; viability, T/C [24]: 8.01%; viability, T/C [34]: 8.06%; viability, T/C [28]: 11%; viability, T/C [29]: 8.12%; viability, T/C [30]: 6.93%; viability, T/C [35]: 7.35%
CC(=O)OC12COC1CC(O)C1(C)C(=O)C(O)C3=C(C)C(OC(=O)C(O)C(NC(=O)OC(C)(C)C)c4ccccc4)CC(O)(C(OC(=O)c4ccccc4)C21)C3(C)C (stereo not given) + CNCc1ccccc1-c1csc(C(C)Nc2nc(C)nc3cc(OC)c(OC)cc23)c1 | < 0.01 | < 0.01 | < 0.01 | < 0.01 | < 0.01 | 15.9 | 13.8 | 14.6 | 17.2 | 18.1 | 14.4 | 13 | 13 | 15.7 | 15 | 11.5 | 16.1 | 0.07 | 0.09 | 0.06 | viability, T/C [1]: 13.9%; viability, T/C [7]: 15.8%; viability, T/C [12]: 17.5%; viability, T/C [13]: 16.5%; viability, T/C [16]: 12.3%; viability, T/C [17]: 17.4%; viability, T/C [18]: 22.8%; viability, T/C [19]: 0.1%; viability, T/C [22]: 0.03%; viability, T/C [23]: 0.08%; viability, T/C [24]: 19.4%; viability, T/C [25]: 0.14%; viability, T/C [28]: 0.04%; viability, T/C [29]: 0.08%; viability, T/C [30]: 0.17%
CN(C)C/C=C/C(=O)Nc1cc2c(Nc3ccc(F)c(Cl)c3)ncnc2cc1O[C@H]1CCOC1 + CNCc1ccccc1-c1csc(C(C)Nc2nc(C)nc3cc(OC)c(OC)cc23)c1 | > 0.1 | > 0.1 | 0.0489 | 0.00193 | < 0.000316 | 64.5 | 57.5 | – | – | – | 58 | 55 | – | – | 56.1 | 43.7 | 74.7 | 1.26 | 0.13 | 0.17 | viability, T/C (second compound 0.1 µM, first compound 0.000316 µM): 90.9%; viability, T/C (second compound 0.1 µM, first compound 0.001 µM): 86.3%; viability, T/C (second compound 0.1 µM, first compound 0.00316 µM): 72.4%; viability, T/C [1]: 70.3%; viability, T/C (second compound 0.316 µM, first compound 0.000316 µM): 82.4%; viability, T/C (second compound 0.316 µM, first compound 0.001 µM): 80.6%; viability, T/C (second compound 0.316 µM, first compound 0.00316 µM): 70.6%; viability, T/C [7]: 71.1%; viability, T/C (second compound 1 µM, first compound 0.000316 µM): 74.4%; viability, T/C (second compound 1 µM, first compound 0.001 µM): 62%; viability, T/C (second compound 1 µM, first compound 0.00316 µM): 60%; viability, T/C [13]: 59.6%; viability, T/C (second compound 3.16 µM, first compound 0.000316 µM): 105%; viability, T/C (second compound 3.16 µM, first compound 0.001 µM): 91.1%; viability, T/C (second compound 3.16 µM, first compound 0.00316 µM): 0.17%; viability, T/C [19]: 0.11%; viability, T/C (second compound 10 µM, first compound 0.000316 µM): 0.13%; viability, T/C (second compound 10 µM, first compound 0.001 µM): 0.13%; viability, T/C (second compound 10 µM, first compound 0.00316 µM): 0.09%; viability, T/C [25]: 0.08%
O=C(c1cc(Cc2n[nH]c(=O)c3ccccc23)ccc1F)N1CCN(C(=O)C2CC2)CC1 + CNCc1ccccc1-c1csc(C(C)Nc2nc(C)nc3cc(OC)c(OC)cc23)c1 | 6.1 | 5.51 | 4.92 | < 0.0316 | < 0.0316 | 98 | 109 | 99.2 | 87.6 | 61.2 | 88.7 | 79 | 76.8 | 74 | 83.5 | 68.3 | 0.14 | 0.13 | 0.33 | 0.1 | viability, T/C [31]: 41.6%; viability, T/C [12]: 62.3%; viability, T/C [32]: 37.6%; viability, T/C [16]: 69.9%; viability, T/C [17]: 70.1%; viability, T/C [18]: 52.3%; viability, T/C [33]: 42.4%; viability, T/C [22]: 0.11%; viability, T/C [23]: 0.1%; viability, T/C [24]: 0.1%; viability, T/C [34]: 0.17%; viability, T/C [28]: 0.1%; viability, T/C [29]: 0.11%; viability, T/C [30]: 0.11%; viability, T/C [35]: 0.19%
